In publication PMC3914206:

Key:
Assay type in all cases: binding
Settings in all cases: Compound Concentration 10 µM
panel of 442 kinases [1] = target: T1, panel of 442 kinases (Homo sapiens, UniProt P53778)
T1 construct: purchased KINOMEscan
T1 sequence (P53778 1-367): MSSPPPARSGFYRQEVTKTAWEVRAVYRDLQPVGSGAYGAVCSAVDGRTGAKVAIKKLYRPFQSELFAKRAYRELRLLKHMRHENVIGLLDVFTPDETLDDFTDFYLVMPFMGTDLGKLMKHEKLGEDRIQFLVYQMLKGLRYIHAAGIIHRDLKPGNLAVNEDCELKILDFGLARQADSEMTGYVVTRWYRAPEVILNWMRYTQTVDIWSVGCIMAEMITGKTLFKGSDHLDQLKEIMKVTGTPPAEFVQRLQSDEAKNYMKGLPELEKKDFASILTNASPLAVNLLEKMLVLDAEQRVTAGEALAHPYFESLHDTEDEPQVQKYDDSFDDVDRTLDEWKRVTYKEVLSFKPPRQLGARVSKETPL
From the text: (§1) We assessed the selectivity of members of this scaffold using the KINOMEscan methodology across a near comprehensive panel of 442 kinases [[18,27]].

panel of 442 kinases [2] = target: T2, panel of 442 kinases (Homo sapiens, UniProt Q9BQI3)
T2 construct: purchased KINOMEscan
T2 sequence (Q9BQI3 whole entry): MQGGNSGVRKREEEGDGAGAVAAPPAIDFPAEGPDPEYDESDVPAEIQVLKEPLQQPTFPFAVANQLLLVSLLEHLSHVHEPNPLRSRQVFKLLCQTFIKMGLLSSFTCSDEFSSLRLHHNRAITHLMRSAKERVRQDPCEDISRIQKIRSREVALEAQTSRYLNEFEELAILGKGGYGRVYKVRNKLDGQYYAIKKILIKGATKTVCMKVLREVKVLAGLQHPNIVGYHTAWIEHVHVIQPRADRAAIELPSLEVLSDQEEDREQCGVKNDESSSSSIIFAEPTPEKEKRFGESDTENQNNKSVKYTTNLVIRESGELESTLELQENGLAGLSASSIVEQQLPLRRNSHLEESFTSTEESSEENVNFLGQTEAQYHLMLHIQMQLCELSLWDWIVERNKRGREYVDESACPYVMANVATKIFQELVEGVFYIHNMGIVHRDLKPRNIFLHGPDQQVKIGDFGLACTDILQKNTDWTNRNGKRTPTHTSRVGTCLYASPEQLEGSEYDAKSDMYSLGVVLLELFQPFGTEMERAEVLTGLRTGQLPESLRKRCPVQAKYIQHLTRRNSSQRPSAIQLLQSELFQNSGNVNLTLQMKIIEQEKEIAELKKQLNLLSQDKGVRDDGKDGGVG
From the text: as §1

panel of 442 kinases [3] = target: T3, panel of 442 kinases (Homo sapiens, UniProt Q9BWU1)
T3 construct: purchased KINOMEscan
T3 sequence (Q9BWU1 whole entry): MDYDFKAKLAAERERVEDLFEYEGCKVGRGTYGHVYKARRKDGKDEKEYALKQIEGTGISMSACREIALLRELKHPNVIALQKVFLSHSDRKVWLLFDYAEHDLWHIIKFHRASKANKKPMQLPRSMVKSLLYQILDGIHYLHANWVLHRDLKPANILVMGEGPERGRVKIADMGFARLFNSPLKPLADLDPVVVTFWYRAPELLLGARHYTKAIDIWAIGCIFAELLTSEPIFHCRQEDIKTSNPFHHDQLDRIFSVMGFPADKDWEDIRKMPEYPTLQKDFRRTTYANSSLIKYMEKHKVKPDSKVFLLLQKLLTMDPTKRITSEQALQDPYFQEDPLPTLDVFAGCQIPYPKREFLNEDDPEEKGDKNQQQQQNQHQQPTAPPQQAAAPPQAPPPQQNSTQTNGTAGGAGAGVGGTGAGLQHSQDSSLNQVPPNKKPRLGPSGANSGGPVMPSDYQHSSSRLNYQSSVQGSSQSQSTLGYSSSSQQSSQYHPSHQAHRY
From the text: as §1

SMILES | KINOMEscan: p38-gamma (panel of 442 kinases [1]) | KINOMEscan: EIF2AK1 (panel of 442 kinases [2]) | KINOMEscan: CDK11 (panel of 442 kinases [3])
CCOc1cc(C(=O)N2CCC(N3CCN(C)CC3)CC2)ccc1Nc1ncc2c(n1)N(C1CCCC1)c1ccccc1C(=O)N2C [Compound 26] | 32 | 100 | 100
COc1cc(C(=O)N2CCC(N3CCN(C)CC3)CC2)ccc1Nc1ncc2c(n1)N(C1CCCC1)c1ccccc1C(=O)N2C [Compound 25, 11-cyclopentyl-2-((2-methoxy-4-(4-(4-methylpiperazin-1-yl)piperidine-1-carbonyl)phenyl)amino)-5-methyl-5H-benzo[e]pyrimido[5,4-b][1,4]diazepin-6(11H)-one] | 88 | 100 | 87
COc1cc(C(=O)N2CCC(N3CCN(C)CC3)CC2)ccc1Nc1ncc2c(n1)N1CCc3cccc(c31)C(=O)N2C [Compound 24] |  |  | 96
COc1cc(C(=O)N2CCC(N3CCN(C)CC3)CC2)ccc1Nc1ncc2c(n1)N(C)c1ccccc1C(=O)N2C [15 (LRRK2-IN-1)] | 76 | 100 | 100
